Reference: patent publication US20120328569A1, “INHIBITORS OF HEPATITIS C VIRUS NS5B POLYMERASE” (priority 2010, published 2012)

The compounds below were run on HCV genotype 1b replicon (assay: HCV replicon assay, cell ELISA with antibody to replicon-encoded NS3/4A (genotype 1b replicon)). Conditions: Hepatitis C virus, 96 h, read-out: Replicon 1b IC50 (nM), HCV genotype 1b replicon cells, 96 hours incubation, NS3/4A ELISA readout.
Type: cell-based, hepatitis C virus
Summary of the method: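 Replicon-harbouring cells carrying neomycin phosphotransferase were incubated 96 h with a compound dilution series without G418. Replication was quantified indirectly by a cell ELISA detecting replicon-encoded NS3/4A. IC50 values were calculated relative to DMSO control with a four-parameter fit.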
`CNC(=O)c1c(-c2ccc(F)cc2)oc2cc(N(C)S(C)(=O)=O)c(-c3cc(-c4nc5cccnc5o4)ccc3Cl)cc12` [Example 230] gave an IC50 of 8.3 nM. `CNC(=O)c1c(-c2ccc(F)cc2)oc2cc(N(C)S(C)(=O)=O)c(-c3ccc(OC(F)(F)F)c(-c4nc5cccnc5o4)c3)cc12` [Example 231] showed an IC50 of 6.6 nM. Work on `CNC(=O)c1c(-c2ccc(F)cc2)oc2cc(N(C)S(C)(=O)=O)c(-c3cc(F)c(OC)c(-c4nc5ncccc5o4)c3)cc12` [Example 232] yielded an IC50 of 2.4 nM. For `CNC(=O)c1c(-c2ccc(F)cc2)oc2cc(N(C)S(C)(=O)=O)c(-c3cc(F)c(OC)c(-c4nc5cccnc5o4)c3)cc12` [Example 233], the IC50 was 2.9 nM. For `CNC(=O)c1c(-c2ccc(F)cc2)oc2cc(N(C)S(C)(=O)=O)c(-c3cc(OC)c(OC)c(-c4nc5ncccc5o4)c3)cc12` [Example 234], the IC50 was 2.7 nM. With `CNC(=O)c1c(-c2ccc(F)cc2)oc2cc(N(C)S(C)(=O)=O)c(-c3cc(OC)c(OC)c(-c4nc5cccnc5o4)c3)cc12` [Example 235] the IC50 was 4 nM. `CNC(=O)c1c(-c2ccc(F)cc2)oc2cc(N(C)S(C)(=O)=O)c(-c3ccc(OCCO)c(-c4nc5ncccc5o4)c3)cc12` [Example 237] gave an IC50 of 2.6 nM. With `CNC(=O)c1c(-c2ccc(F)cc2)oc2cc(N(C)S(C)(=O)=O)c(-c3ccc(OC)c(-c4nc5ncccc5o4)c3)cc12` [Example 238] the IC50 was 2.9 nM. `CNC(=O)c1c(-c2ccc(F)cc2)oc2cc(N(C)S(C)(=O)=O)c(-c3ccc(OC)c(-c4nc5ncc(Cl)cc5o4)c3)cc12` [Example 239] showed an IC50 of 2.6 nM. In the case of `CNC(=O)c1c(-c2ccc(F)cc2)oc2cc(N(C)S(C)(=O)=O)c(-c3cccc(-c4nc5nccnc5o4)c3)cc12` [Example 240], the IC50 is reported as 1.9 nM. Compound `CNC(=O)c1c(-c2ccc(F)cc2)oc2cc(N(C)S(C)(=O)=O)c(-c3cccc(-c4nc5ncncc5o4)c3)cc12` [Example 241] has an IC50 of 9.5 nM. Compound `CNC(=O)c1c(-c2ccc(F)cc2)oc2cc(N(C)S(C)(=O)=O)c(-c3cccc(-c4nc5cncnc5o4)c3)cc12` [Example 242] has an IC50 of 4.8 nM. With `CNC(=O)c1c(-c2ccc(F)cc2)oc2cc(N(C)S(C)(=O)=O)c(-c3cc(F)c(F)c(-c4nc5ncccc5o4)c3)cc12` [Example 243] the IC50 was 1.3 nM. Work on `CNC(=O)c1c(-c2ccc(F)cc2)oc2cc(N(C)S(C)(=O)=O)c(-c3cc(F)c(F)c(-c4nc5cccnc5o4)c3)cc12` [Example 244] yielded an IC50 of 1.3 nM. `CNC(=O)c1c(-c2ccc(F)cc2)oc2cc(N(C)S(C)(=O)=O)c(-c3cc(F)cc(-c4nc5cccnc5s4)c3)cc12` [Example 245] gave an IC50 of 2 nM. For `CNC(=O)c1c(-c2ccc(F)cc2)oc2cc(N(C)S(C)(=O)=O)c(-c3ccc(F)c(-c4nc5cccnc5s4)c3)cc12` [Example 246], the IC50 was 3.6 nM. Compound `CNC(=O)c1c(-c2ccc(F)cc2)oc2cc(N(C)S(C)(=O)=O)c(-c3cc(OC)cc(-c4nc5cccnc5s4)c3)cc12` [Example 249] has an IC50 of 2.2 nM. With `CNC(=O)c1c(-c2ccc(F)cc2)oc2cc(N(C)S(C)(=O)=O)c(-c3cc(-c4nc5cccnc5s4)ccc3OC)cc12` [Example 250] the IC50 was 5.1 nM. `CNC(=O)c1c(-c2ccc(F)cc2)oc2cc(N(C)S(C)(=O)=O)c(-c3cccc(-c4nc5ccc(OC)nc5s4)c3)cc12` [Example 251] gave an IC50 of 4 nM. `CNC(=O)c1c(-c2ccc(F)cc2)oc2cc(N(C)S(C)(=O)=O)c(-c3cccc(-c4nc5ccc(=O)[nH]c5s4)c3)cc12` [Example 252] showed an IC50 of 78.2 nM. In the case of `CNC(=O)c1c(-c2ccc(F)cc2)oc2cc(N(C)S(C)(=O)=O)c(-c3ccc(F)c(-c4nc5ncccc5s4)c3)cc12` [Example 260], the IC50 is reported as 3.7 nM. `CNC(=O)c1c(-c2ccc(F)cc2)oc2cc(N(C)S(C)(=O)=O)c(-c3cccc(-c4nc5ncc(Cl)cc5s4)c3)cc12` [Example 261] was tested, and the IC50 was 2 nM. With `CNC(=O)c1c(-c2ccc(F)cc2)oc2cc(N(C)S(C)(=O)=O)c(-c3cccc(-c4nc5cnccc5s4)c3)cc12` [Example 262] the IC50 was 5 nM. Compound `CNC(=O)c1c(-c2ccc(F)cc2)oc2cc(N(C)S(C)(=O)=O)c(-c3cccc(-c4nc5ccncc5s4)c3)cc12` [Example 264] has an IC50 of 2.9 nM. In the case of `CNC(=O)c1c(-c2ccc(F)cc2)oc2cc(N(C)S(C)(=O)=O)c(-c3ccc(OC)c(-c4nc5cccnc5s4)c3)cc12` [Example 271], the IC50 is reported as 1.5 nM. In the case of `CNC(=O)c1c(-c2ccc(F)cc2)oc2cc(N(C)S(C)(=O)=O)c(-c3cccc(-c4nc5nccnc5s4)c3)cc12` [Example 272], the IC50 is reported as 3 nM. In the case of `CNC(=O)c1c(-c2ccc(F)cc2)oc2cc(N(C)S(C)(=O)=O)c(-c3cccc(-c4nc5cncnc5s4)c3)cc12` [Example 273], the IC50 is reported as 2.2 nM. `CNC(=O)c1c(-c2ccc(F)cc2)oc2cc(N(C)S(C)(=O)=O)c(-c3cccc(-c4nc5c(F)cccc5s4)c3)cc12` [Example 278] was tested, and the IC50 was 3.2 nM. `CNC(=O)c1c(-c2ccc(F)cc2)oc2cc(N(C)S(C)(=O)=O)c(-c3cccc(-c4nc5cccc(F)c5s4)c3)cc12` [Example 279] showed an IC50 of 3.2 nM. `CNC(=O)c1c(-c2ccc(F)cc2)oc2cc(N(C)S(C)(=O)=O)c(-c3cccc(-c4nc5ccc(NS(C)(=O)=O)cc5o4)c3)cc12` [Example 281, 2-(4-fluorophenyl)-N-methyl-6-(N-methylmethylsulfonamido)-5-(3-(6-(methylsulfonamido)benzo[d]oxazol-2-yl)phenyl)benzofuran-3-carboxamide] showed an IC50 of 3.3 nM. In the case of `CNC(=O)c1c(-c2ccc(F)cc2)oc2cc(N(C)S(C)(=O)=O)c(-c3cccc(-c4nc5ccc(NC(C)=O)cc5o4)c3)cc12` [Example 282], the IC50 is reported as 2.3 nM. `CNC(=O)c1c(-c2ccc(F)cc2)oc2cc(N(C)S(C)(=O)=O)c(-c3cccc(-c4nc5ccc(NC(=O)c6ccccc6)cc5o4)c3)cc12` [Example 283] was tested, and the IC50 was 17.2 nM. For `CNC(=O)c1c(-c2ccc(F)cc2)oc2cc(N(C)S(C)(=O)=O)c(-c3cccc(-c4nc5ccc(NS(=O)(=O)c6ccccc6)cc5o4)c3)cc12` [Example 284], the IC50 was 5.3 nM. `CNC(=O)c1c(-c2ccc(F)cc2)oc2cc(N(C)S(C)(=O)=O)c(-c3cccc(-c4nc5ccc(NC(=O)[C@@H]6CCCN6C(=O)OC(C)(C)C)cc5o4)c3)cc12` [Example 285] gave an IC50 of 10.2 nM. `CNC(=O)c1c(-c2ccc(F)cc2)oc2cc(N(C)S(C)(=O)=O)c(-c3cccc(-c4nc5cc(NS(=O)(=O)c6ccccc6)ccc5o4)c3)cc12` [Example 286] was tested, and the IC50 was 5.8 nM. Work on `CNC(=O)c1c(-c2ccc(F)cc2)oc2cc(N(C)S(C)(=O)=O)c(-c3cc(F)cc(-c4nc5ccccc5s4)c3)cc12` [Example 289] yielded an IC50 of 5.4 nM. `CNC(=O)c1c(-c2ccc(F)cc2)oc2cc(N(C)S(C)(=O)=O)c(-c3cc(-c4nc5ccccc5s4)ccc3F)cc12` [Example 290] showed an IC50 of 6.9 nM. For `CNC(=O)c1c(-c2ccc(F)cc2)oc2cc(N(C)S(C)(=O)=O)c(-c3cccc(-c4nc5cc(F)ccc5s4)c3)cc12` [Example 292], the IC50 was 5.9 nM. With `CNC(=O)c1c(-c2ccc(F)cc2)oc2cc(N(C)S(C)(=O)=O)c(-c3ccc(F)c(-c4nc5ccc(F)cc5s4)c3)cc12` [Example 293] the IC50 was 8.6 nM. In the case of `CNC(=O)c1c(-c2ccc(F)cc2)oc2cc(N(C)S(C)(=O)=O)c(-c3ccc(F)c(-c4nc5ccc(C)cc5s4)c3)cc12` [Example 294], the IC50 is reported as 10 nM. Compound `CNC(=O)c1c(-c2ccc(F)cc2)oc2cc(N(C)S(C)(=O)=O)c(-c3cccc(-c4nc5cccc(C#N)c5s4)c3)cc12` [Example 295] has an IC50 of 4.1 nM. `CNC(=O)c1c(-c2ccc(F)cc2)oc2cc(N(C)S(C)(=O)=O)c(-c3ccc(F)c(-c4nc5ccccc5s4)c3F)cc12` [Example 296] gave an IC50 of 64.1 nM.
